System: Mycobacterium tuberculosis H37Rv growth inhibition, no glycerol
Assay: Confirmatory growth inhibition assay, Mycobacterium tuberculosis H37Rv, absence of glycerol (AID 449764);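 further: growth read after 7 days of incubation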
Conditions: for IC90: measured here: IC90 growth inhibition

Row | SMILES | IC50 [µM] | IC90 [µM]
1 | COc1ccc(COc2cc(-c3cccc(OC)c3)nc3ccc(NC(=O)c4ccc(OC)cc4)cc23)cc1 | 24 | > 100
2 | CN(C)CCCNC(=O)c1ccc(-c2nc(-c3ccc(Cl)cc3)cs2)cc1 | 26.4 | 33.8
3 | O=C(C1=C[C@@H](c2csc3ccccc23)C[C@@H](OCCCCO)O1)N1CCN(Cc2ccc3c(c2)OCO3)CC1 | 33.9 | 53.6
4 | COCCNC(=S)N/N=C(\C)c1ccc(OC)cc1 | 43.6 | 49
5 | CCN(CC)c1ccc(N)cc1 | 8.96 | 11.2
6 | Cc1ccc2c(c1)c1ncnc(N3CCc4ccccc4C3)c1n2C | 73.8 | > 100
7 | Cc1ccc(/C=C/S(=O)(=O)NCC(=O)OCC(=O)Nc2c(F)cccc2F)cc1 | 22.9 | 41.3
8 | O=C(OCC(=O)N1CCCCC1)c1cc2ccccc2cc1O | 2.95 | 3.42
9 | Cc1onc(-c2ccccc2Cl)c1C(=O)Oc1cccc2cccnc12 | 3.38 | 3.98
10 | O=C(/C(=C/c1ccc(Cl)cc1)c1nc2ccccc2[nH]1)c1cccs1 | 35.5 | 96.8
11 | CN(C)C1(CNC(=O)Nc2ccc(Cl)c(Cl)c2)CCCCC1 | 11.8 | 13.1
12 | CN(Cc1ccc(Br)cc1)C(=O)CCN1C(=O)c2cccc([N+](=O)[O-])c2C1=O | 97.3 | > 100
13 | COc1cc(NC(C)CCCN)c2ncccc2c1 (stereo not given) | 9.02 | 14.3
14 | O=C(CCl)N1CCN2C(=O)c3ccccc3C12c1ccc(Cl)cc1 (stereo not given) | 21.9 | 32.1
15 | O=C(NCc1nnnn1-c1ccc(F)cc1)c1ccc([N+](=O)[O-])o1 | 53.7 | > 100
16 | O=C(NCC1CCN(c2ccc(S(=O)(=O)N3CCOCC3)cc2)CC1)c1ccc(Cl)cc1 | 40.6 | 57
17 | CCCCN(C)S(=O)(=O)c1ccc(C(=O)Nc2nnc(-c3ccco3)o2)cc1 | 17.8 | 32.7
18 | COc1cc(/C=C2\C(=O)N(c3ccc(S(N)(=O)=O)cc3)N=C2C)ccc1OC(=O)c1ccco1 | 22.6 | 26.1
19 | CCNC(=S)NN=C1c2ccccc2-c2ccccc21 | 11 | > 25
20 | CC1=NN(c2ccc(C)c(C)c2)C(=O)/C1=C\C=C\c1ccc([N+](=O)[O-])o1 | 10.9 | 17.7
21 | CCC(=O)c1ccc(OCC(=O)OCC(=O)c2cc(C)n(C3CC3)c2C)cc1 | 19.2 | 40.7
22 | CC1=NOC(=O)/C1=C/c1ccc(-c2ccc(Cl)cc2)o1 | 18.4 | > 100

Row | SMILES | IC50 [µM] | IC90 [µM]
23 | O=[N+]([O-])c1ccc(CN2CCN(c3ccc(Cl)cc3)CC2)o1 | 0.44 | > 100
24 | CCCOc1ccc(-c2cnc(SCC(N)=O)nc2N)cc1 | 42.3 | > 100
25 | CCCCn1c(SCc2ncc(-c3ccccc3)o2)nc2cc(S(N)(=O)=O)ccc21 | 5.25 | 8.34
26 | COC(=O)c1cc(-c2cccc(OC)c2)on1 | 10.5 | > 100
27 | CC1CCCN(Cc2c(O)ccc3c(=O)c(-c4nc5ccccc5s4)c(N)oc23)C1 (stereo not given) | 11.7 | 21
28 | O=c1cc(CCl)nc(Cc2c(Cl)cccc2Cl)[nH]1 | 10.5 | > 100
29 | Cc1cccc(N(C(=O)c2nsc(Cl)c2Cl)C(C(=O)NC2CCCC2)c2ccc(O)cc2)c1C (stereo not given) | 30.8 | 41
30 | CCOC(=O)CSc1cc(=O)n(C)c2cc(Cl)ccc12 | < 0.2 | 18.3
31 | Cc1nn2c(NCc3ccccn3)cc(C(C)C)nc2c1-c1ccccc1 | 2.85 | 3.23
32 | Cc1cc(CC(C)C)n(-c2nc3ccccc3c(=O)n2OCC(N)=O)n1 | 11.2 | 20.6
33 | O=C(OCc1csc(Nc2ccccc2)n1)c1ccc(Cl)cc1 | 46.4 | 53
34 | CCc1c(C)sc(NC(=S)N2CCN(CC)CC2)c1C(=O)OC | 13.3 | > 25
35 | CCCOc1ccc(C(=O)NC(=S)NCc2cccnc2)cc1 | 35.1 | 45.7
36 | CC(C)(C)c1nn(-c2ccccc2)c2[nH]c(=O)c(CNCc3ccc4c(c3)OCO4)cc12 | 20.8 | 34.4
37 | CC(C)(C)OC(=O)NNc1c2ccccc2nc2ccccc12 | 22.6 | 25.2
38 | O=C(NCCc1ccc(Cl)cc1)c1ccc(CS(=O)Cc2ccc(Cl)cc2)o1 (stereo not given) | 45.2 | 52.1
39 | CC(C)(C)c1ccc(OCCCC(=O)NC2=NCCS2)cc1 | 38.7 | 48.9
40 | CC(C)n1cnc2c(NCc3ccccc3)cc(Cc3ccc(F)cc3)cc21 | 34.4 | 49.3
41 | COc1ccccc1Nc1nc(N)nc(CCl)n1 | 4.83 | 12.3
42 | Cc1nc(-c2ccc(Cl)cc2)sc1C1(C)CC(c2ccc(C#N)cc2)=NO1 (stereo not given) | 43.6 | > 100
43 | O=C(NC1CCCC(C(F)(F)F)C1)c1ccc([N+](=O)[O-])o1 (stereo not given) | 17.9 | 28.3
44 | Cc1ccc(C(=O)ONc2ccc(N=O)cc2)cc1 | 57.3 | > 100

Row | SMILES | IC50 [µM] | IC90 [µM]
45 | CSc1ncc(C(=O)Nc2ccc(Br)cn2)c(C)n1 | 1.54 | 2.93
46 | Cc1ccc(S(=O)(=O)NC(CC(C)C)C(=O)N2CCN(C/C=C/c3ccccc3)CC2)cc1 (stereo not given) | 66.4 | 90.2
47 | C/C(=N\Nc1ccc([N+](=O)[O-])cc1)c1cccc(N)c1 | 61.2 | 88.9
48 | Clc1ccc(C(Cn2ccnc2)OCc2csc3c(Cl)cccc23)c(Cl)c1 (stereo not given) | 17.7 | 23.9
49 | CCN(CC)c1ccc2nc3ccccc3[n+](CC)c2c1 | 3.23 | 5.55
50 | CC(C)Cc1ccc(C(C)C(N)=NCCc2ccccc2)cc1 (stereo not given) | 24.1 | 27.8
51 | Cc1cc(C)cc(-n2c(C)c3c(C)nnc(C)c3c2C)c1 | 61.3 | 79.7
52 | O=C(CSCc1ccc([N+](=O)[O-])cc1)N/N=C/c1ccncc1 | 11.3 | 26
53 | CC1Cc2cc(-c3csc(NC(=O)Cc4cccs4)n3)ccc2N1S(C)(=O)=O (stereo not given) | 36.2 | > 100
54 | CC(C)[C@H](CO)N(Cc1cccc(F)c1)c1nc(Nc2cccc(Cl)c2)c2ncn(C(C)C)c2n1 | 37.5 | 57.4
55 | CC1CCCC(C)N1C(=O)COC(=O)c1cc(-c2cccs2)nn1-c1ccccc1 (stereo not given) | 62.2 | 86.3
56 | COc1ccccc1N(C)S(=O)(=O)c1ccc(C(=O)Nc2ccc3nc(C)sc3c2)cc1 | 51.1 | 99.8
57 | CS(=O)(=O)c1ccc([C@@H](O)[C@@H](CF)NC(=O)C(Cl)Cl)cc1 | 16.8 | 27.8
58 | O=C(NN=C1c2ccccc2-c2ccccc21)c1cccc(Br)c1 | 42.2 | > 100
59 | Cc1ccc(C)c(N2CCN(C(=S)Nc3ccc4nc(N5CCN(C)CC5)cc(C)c4c3)CC2)c1 | 35.7 | 55.9
60 | CCCCOC(=O)CCN1C(=O)/C(=C2\SC(=S)N(CCC(=O)OCCCC)C2=O)SC1=S | 5.44 | 10.6
61 | CCOc1cccc(C=Nc2cc(C)cc(C)c2O)c1O | 31.2 | 41.4
62 | COc1cc2nc(N3CCN(c4cc(C)ccc4C)CC3)nc(N)c2cc1OC | 15.3 | 18.7
63 | Cc1cc(C)n(-c2cc(C(C)(C)C)nc3c(-c4ccccc4)cnn23)n1 | 36.1 | 47.3
64 | Cc1c(Cl)ccc2sc(N3CCN(C(=O)C4=COCCO4)CC3)nc12 | 22.5 | 30.6
65 | C#CCOCCOCCOCCNc1nc(N2CCN(C(=O)C(Cc3ccc(O)cc3)n3cc(C(N)CC(C)C)nn3)CC2)nc(N2CCN(C(=O)C(Cc3cc4ccccc4[nH]3)n3cc(C(N)Cc4ccc(O)cc4)nn3)CC2)n1 (stereo not given) | 16.9 | 23.8
66 | N#CCn1c(CCl)nc2ccccc2c1=O | 22.8 | 25.8

Row | SMILES | IC50 [µM] | IC90 [µM]
67 | COc1ccc(NC(=O)NC(C)C2CC3CCC2C3)cc1 (stereo not given) | 25.3 | 43.1
68 | COc1ccc(-c2c(C#Cc3ccsc3)c3ccccc3n2C)cc1 | 33.8 | 49.6
69 | CCCCn1c(NCc2ccc3c(c2)OCO3)nc2ccccc21 | 23.5 | 25.9
70 | CC(C)CC[n+]1ccccc1/C=C/c1ccc(N(C)C)cc1 | 10.2 | 15.4
71 | Cc1ccc(C2=NCCn3c2c2ccccc2[n+]3[O-])cc1 | 24.5 | 31.7
72 | Cc1ccc(CN2C3CCCC2CC(NC(=S)NCc2ccccc2)C3)cc1 (stereo not given) | 41.1 | 75.6
73 | COc1ccc(C)cc1Nc1n[n+](-c2ccccc2)c(-c2c(Cl)cccc2Cl)s1 | 18.4 | 24.9
74 | Cc1ccc(-n2cc(CN(C)Cc3nccn3C)c(-c3cccc(C)c3)n2)cc1 | 13.1 | 17.4
75 | COc1ccccc1/C(C)=N/NC(=S)NCc1ccccc1 | 23.6 | 27.1
76 | CCCCS(=O)(=O)/C=C\C=C/S(=O)(=O)CCCC | 2.24 | 2.92
77 | Cc1cc(C(=O)COC(=O)C2=COCCO2)c(C)n1-c1cccc(F)c1 | 9.64 | > 100
78 | CN(C(=O)COC(=O)c1sc2ccccc2c1Cl)C1CCCCC1 | 9.63 | 14.2
79 | O=[N+]([O-])c1ccc(-n2cnc3ccccc32)c([N+](=O)[O-])c1 | 96.4 | > 100
80 | CCc1cccc2c(=O)c(C(=O)N3CCOCC3)c[nH]c12 | 15.3 | 22.9
81 | Cc1nn(-c2ccccc2)c(Cl)c1C(=O)Nc1nnc(C2CCCCC2)s1 | – | > 50
82 | CCCCCCCCSc1nnc(CSc2nc3nc(C)cc(C)n3n2)o1 | 2.63 | 6.27
83 | COCCCNC(=O)/C(C#N)=C/c1c(N2CCN(c3cccc(Cl)c3)CC2)nc2c(C)cccn2c1=O | 38.5 | > 100
84 | COc1ccc(Nc2nc(N)c([N+](=O)[O-])c(NC3CCCCC3)n2)cc1 | 18.3 | 26.3
85 | CCOc1ccc(-c2csc(/C(C#N)=C\c3ccc(O)c([N+](=O)[O-])c3)n2)cc1 | 16.7 | > 100
86 | O=C(/C=C/c1ccc([N+](=O)[O-])cc1)NC1CC2CCC1C2 (stereo not given) | 68.7 | > 100
87 | CSCCC(=O)N1CCCC(CNC(=O)c2ccc(-c3ccccc3)cc2)C1 (stereo not given) | 41.5 | 70.6
88 | Oc1ccccc1N=Cc1ccc[nH]1 | 4.6 | 6.04
